Data: US10689383B2, “Optionally fused heterocyclyl-substituted derivatives of pyrimidine useful for the treatment of inflammatory, metabolic, oncologic and autoimmune diseases” (NUEVOLUTION A/S, priority 2014, dated 2020)

Key:
[1] = target: T1, yeast Gal4-DNA binding domain fused to the ligand binding domain of human RORγ (Homo sapiens, UniProt P51449); test: RORγ Reporter Assay (Gal4); assay type: cell-based; conditions: values given as lower bounds of ranges; for Gal4 activity range @ 0.1 μM (% inhibition): RORγ Reporter Assay (Gal4) at 0.1 μM; for Gal4 activity range @ 1 μM (% inhibition): RORγ Reporter Assay (Gal4) at 1 μM
T1 construct: host or cells: HEK293t
T1 sequence (P51449 269-508 limits assumed): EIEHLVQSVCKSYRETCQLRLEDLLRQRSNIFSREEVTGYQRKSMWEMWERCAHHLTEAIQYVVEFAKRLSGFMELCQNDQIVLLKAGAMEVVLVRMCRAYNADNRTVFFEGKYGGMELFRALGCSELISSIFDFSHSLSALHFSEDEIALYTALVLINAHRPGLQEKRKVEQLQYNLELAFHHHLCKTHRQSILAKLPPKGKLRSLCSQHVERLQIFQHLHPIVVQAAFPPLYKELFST
How it was run: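 HEK293t reporter cells expressing the hybrid, with Gal4-UAS-driven firefly luciferase, treated in triplicate with compound at 1,000 nM and 100 nM (0.1% DMSO) in medium with 10% charcoal-stripped FBS for 24 h at 37 °C. Luminescence read; percent reduction of RLU calculated relative to vehicle.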

[2] = target: T2, human RORγt (Ligand Binding Domain) (Homo sapiens, UniProt P51449); test: Fluorescence Polarization (FP) Assay; conditions: Fluorescence Polarization (FP) Assay; values given as upper bounds of activity ranges; read-out: FP activity range
T2 construct: purchased Crelux (Planegg, Germany) batch no PC5032-1
T2 sequence (P51449 269-508 limits assumed): T1 sequence (P51449 269-508 limits assumed)
How it was run: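 In vitro FP binding assay monitoring ligand binding within the ligand binding pocket. Probe is a TAMRA-labelled RORγt ligand (MW 910 g/mole); DMSO served as negative control.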

SMILES	Gal4 activity range @ 0.1 μM (% inhibition) [1] [% inhibition]	Gal4 activity range @ 1 μM (% inhibition) [1] [% inhibition]	IC50 [2] [µM]
O=C(O)Cc1ccc(CNc2ncnc(N3CCOCC3c3ccc(C(F)(F)F)cc3)c2F)cc1 (stereo not drawn) [Example 119, 2-[4-[[[5-fluoro-6-[3-[4-(trifluoromethyl)phenyl]morpholin-4-yl]pyrimidin-4-yl]amino]methyl]phenyl]acetic acid]	>20	>80	< 1
OC1(CNc2ncnc(N3CCCC3c3ccc(C(F)(F)F)cc3)c2F)CCOCC1 (stereo not drawn) [Example 129, 4-[[[5-fluoro-6-[2-[4-(trifluoromethyl)phenyl]pyrrolidin-1-yl]pyrimidin-4-yl]amino]methyl]tetrahydropyran-4-ol]	>50		< 0.5
Fc1c(NCc2ccncc2)ncnc1N1CCCC1c1ccc(C(F)(F)F)cc1 (stereo not drawn) [Example 140, 5-fluoro-N-(4-pyridylmethyl)-6-[2-[4-(trifluoromethyl)phenyl]pyrrolidin-1-yl]pyrimidin-4-amine]	>20		< 0.5
CC1(CNc2ncnc(N3CCCC3c3ccc(C(F)(F)F)cc3)c2F)CCC1 (stereo not drawn) [Example 152, 5-fluoro-N-[(1-methylcyclobutyl)methyl]-6-[2-[4-(trifluoromethyl)phenyl]pyrrolidin-1-yl]pyrimidin-4-amine]	>0		< 0.5
CC1(CNc2ncnc(N3CCC[C@@H]3c3ccc(C(F)(F)F)cc3)c2F)CCOCC1 [Example 161, 5-fluoro-N-[(4-methyltetrahydropyran-4-yl)methyl]-6-[(2R)-2-[4-(trifluoromethyl)phenyl]pyrrolidin-1-yl]pyrimidin-4-amine]	>20		< 0.5
Fc1c(NCC2CCSCC2)ncnc1N1CCC[C@@H]1c1ccc(C(F)(F)F)cc1 [Example 164, 5-fluoro-N-(tetrahydrothiopyran-4-ylmethyl)-6-[(2R)-2-[4-(trifluoromethyl)phenyl]pyrrolidin-1-yl]pyrimidin-4-amine]	>20		< 0.5
OC1(CNc2ncnc(N3CCC[C@@H]3c3ccc(C(F)(F)F)cc3)c2F)CCSC1 (stereo partly drawn) [Example 165, 3-[[[5-fluoro-6-[(2R)-2-[4-(trifluoromethyl)phenyl]pyrrolidin-1-yl]pyrimidin-4-yl]amino]methyl]tetrahydrothiophen-3-ol]	>50		< 0.5
OC1(CNc2ncnc(N3CCC[C@@H]3c3ccc(C(F)(F)F)cc3)c2F)CCCCCC1 [Example 167, 1-[[[5-fluoro-6-[(2R)-2-[4-(trifluoromethyl)phenyl]pyrrolidin-1-yl]pyrimidin-4-yl]amino]methyl]cycloheptanol]	>0		< 0.5
COC1CCCCC1CNc1ncnc(N2CCC[C@@H]2c2ccc(C(F)(F)F)cc2)c1F (stereo partly drawn) [Example 168, 5-fluoro-N-[(2-methoxycyclohexyl)methyl]-6-[(2R)-2-[4-(trifluoromethyl)phenyl]pyrrolidin-1-yl]pyrimidin-4-amine]	>50		< 0.5
NS(=O)(=O)c1ccc(CNc2ncnc(N3CCC[C@@H]3c3ccc(C(F)(F)F)cc3)c2F)cc1 [Example 182, 4-[[[5-fluoro-6-[(2R)-2-[4-(trifluoromethyl)phenyl]pyrrolidin-1-yl]pyrimidin-4-yl]amino]methyl]benzenesulfonamide]	>50		< 0.5
Fc1c(NCc2ccc(Cl)nc2)ncnc1N1CCC[C@@H]1c1ccc(C(F)(F)F)cc1 [Example 183, N-[(6-chloro-3-pyridyl)methyl]-5-fluoro-6-[(2R)-2-[4-(trifluoromethyl)phenyl]pyrrolidin-1-yl]pyrimidin-4-amine]	>50		< 0.5
Fc1c(NCc2ccsc2)ncnc1N1CCC[C@@H]1c1ccc(C(F)(F)F)cc1 [Example 185, 5-fluoro-N-(3-thienylmethyl)-6-[(2R)-2-[4-(trifluoromethyl)phenyl]pyrrolidin-1-yl]pyrimidin-4-amine]	>50		< 1
COCC1(CNc2ncnc(N3CCC[C@@H]3c3ccc(C(F)(F)F)cc3)c2F)CCC1 [Example 188, 5-fluoro-N-[[1-(methoxymethyl)cyclobutyl]methyl]-6-[(2R)-2-[4-(trifluoromethyl)phenyl]pyrrolidin-1-yl]pyrimidin-4-amine]	>0		< 0.5
CNC(=O)Cc1ccc(CNc2ncnc(N3CCC[C@@H]3c3ccc(C(F)(F)F)cc3)c2F)cc1 [Example 189, 2-[4-[[[5-fluoro-6-[(2R)-2-[4-(trifluoromethyl)phenyl]pyrrolidin-1-yl]pyrimidin-4-yl]amino]methyl]phenyl]-N-methyl-acetamide]	>20		< 0.5
Fc1c(NC[C@H]2CC[C@H](Cc3nnn[nH]3)CC2)ncnc1N1CCC[C@@H]1c1ccc(C(F)(F)F)cc1 [Example 190, 5-fluoro-N-[[4-(1H-tetrazol-5-ylmethyl)cyclohexyl]methyl]-6-[(2R)-2-[4-(trifluoromethyl)phenyl]pyrrolidin-1-yl]pyrimidin-4-amine]	>80	>80	< 0.5

Continued, values first:

Gal4 activity range @ 0.1 μM (% inhibition) [1] [% inhibition]	Gal4 activity range @ 1 μM (% inhibition) [1] [% inhibition]	IC50 [2] [µM]	SMILES
>50	>80	< 0.5	Fc1c(NCc2ccc(Cn3cncn3)cc2)ncnc1N1CCCC1c1ccc(C(F)(F)F)cc1 (stereo not drawn) [Example 115, 5-fluoro-N-[[4-(1,2,4-triazol-1-ylmethyl)phenyl]methyl]-6-[2-[4-(trifluoromethyl)phenyl]pyrrolidin-1-yl]pyrimidin-4-amine]
>20	>50	< 1	COc1ccc(CN(C)c2ncnc(N3CCCC3c3ccc(C(F)(F)F)cc3)c2F)cn1 (stereo not drawn) [Example 116, 5-fluoro-N-[(6-methoxy-3-pyridyl)methyl]-N-methyl-6-[2-[4-(trifluoromethyl)phenyl]pyrrolidin-1-yl]pyrimidin-4-amine]
>0	>20	< 10	O=C(O)Cc1ccc(CNc2ncnc(N3CCC[C@H]3c3ccc(C(F)(F)F)cc3)c2F)cc1 [Example 118, 2-[4-[[[5-fluoro-6-[(2S)-2-[4-(trifluoromethyl)phenyl]pyrrolidin-1-yl]pyrimidin-4-yl]amino]methyl]phenyl]acetic acid]
>0	>20	< 10	CC(C)CC(Nc1ncnc(N2CCCC2c2ccc(C(F)(F)F)cc2)c1F)c1nnn[nH]1 (stereo not drawn) [Example 123, 5-fluoro-N-[3-methyl-1-(1H-tetrazol-5-yl)butyl]-6-[2-[4-(trifluoromethyl)phenyl]pyrrolidin-1-yl]pyrimidin-4-amine]
>20	>50	< 2	Fc1c(NCc2ccc(C(F)(F)F)nc2)ncnc1N1CCCC1c1ccc(C(F)(F)F)cc1 (stereo not drawn) [Example 126, 5-fluoro-6-[2-[4-(trifluoromethyl)phenyl]pyrrolidin-1-yl]-N-[[6-(trifluoromethyl)-3-pyridyl]methyl]pyrimidin-4-amine]
>50		< 0.5	OCCc1ccc(CNc2ncnc(N3CCCC3c3ccc(C(F)(F)F)cc3)c2F)cc1 (stereo not drawn) [Example 128, 2-[4-[[[5-fluoro-6-[2-[4-(trifluoromethyl)phenyl]pyrrolidin-1-yl]pyrimidin-4-yl]amino]methyl]phenyl]ethanol]
>20		< 2	COc1ccnc(CNc2ncnc(N3CCCC3c3ccc(C(F)(F)F)cc3)c2F)c1 (stereo not drawn) [Example 131, 5-fluoro-N-[(4-methoxy-2-pyridyl)methyl]-6-[2-[4-(trifluoromethyl)phenyl]pyrrolidin-1-yl]pyrimidin-4-amine]
>50		< 1	O=C(O)CC1CCC(CNc2ncnc(N3CCCC3c3ccc(C(F)(F)F)cc3)c2F)CC1 (stereo not drawn) [Example 148, 2-[4-[[[5-fluoro-6-[2-[4-(trifluoromethyl)phenyl]pyrrolidin-1-yl]pyrimidin-4-yl]amino]methyl]cyclohexyl]acetic acid]
>0		< 0.5	OC1(CNc2ncnc(N3CCC[C@@H]3c3ccc(C(F)(F)F)cc3)c2F)CCSCC1 [Example 169, 4-[[[5-fluoro-6-[(2R)-2-[4-(trifluoromethyl)phenyl]pyrrolidin-1-yl]pyrimidin-4-yl]amino]methyl]tetrahydrothiopyran-4-o1]
>0		< 0.5	Fc1c(NCC2CCCOC2)ncnc1N1CCC[C@@H]1c1ccc(C(F)(F)F)cc1 (stereo partly drawn) [Example 186, 5-fluoro-N-(tetrahydropyran-3-ylmethyl)-6-[(2R)-2-[4-(trifluoromethyl)phenyl]pyrrolidin-1-yl]pyrimidin-4-amine]
